Data reported in US4205067A, “Antibiotics” (priority 1974, dated 1980).
Counter-ions that a name gives are not always drawn.

Key:
Staph. aureus (Russell) = test: MIC, serial dilution in nutrient agar, synergism with ampicillin; assay type: cell-based; conditions: alone
[1] = system: Staph. aureus (Russell H); test: as above; assay type: cell-based; conditions: alone
Proteus mirabilis 889 = test: as above; assay type: cell-based; conditions: alone
E. coli B11 = test: as above; assay type: cell-based; conditions: alone
Proteus rettgeri R110 = test: as above; assay type: cell-based; conditions: alone
E. coli JT39 = test: as above; assay type: cell-based; conditions: alone
Proteus mirabilis 247 = test: as above; assay type: cell-based; conditions: alone
[2] = target: β-lactamases produced by Staphylococcus aureus (Staphylococcus aureus, UniProt P00807); test: β-lactamase inhibition (qualitative); assay type: biochemical
β-lactamases produced by Staphylococcus aureus, sequence (P00807 25-281): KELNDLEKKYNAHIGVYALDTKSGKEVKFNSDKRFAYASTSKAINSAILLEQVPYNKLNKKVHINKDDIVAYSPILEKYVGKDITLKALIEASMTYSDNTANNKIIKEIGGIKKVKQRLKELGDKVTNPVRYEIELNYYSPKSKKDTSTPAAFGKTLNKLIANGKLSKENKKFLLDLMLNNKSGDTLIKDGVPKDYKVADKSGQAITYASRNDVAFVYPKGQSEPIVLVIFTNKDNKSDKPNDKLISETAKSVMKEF

Proteus morganii = test: bioautography zone diameter (cellulose TLC); assay type: cell-based; conditions: butanol/isopropyl alcohol/water 7:7:6
[3] = target: Escherichia coli β-lactamase (Escherichia coli, UniProt P62593); test: β-lactamase inhibition (qualitative); assay type: biochemical
Escherichia coli β-lactamase, sequence (P62593 24-286 limits assumed): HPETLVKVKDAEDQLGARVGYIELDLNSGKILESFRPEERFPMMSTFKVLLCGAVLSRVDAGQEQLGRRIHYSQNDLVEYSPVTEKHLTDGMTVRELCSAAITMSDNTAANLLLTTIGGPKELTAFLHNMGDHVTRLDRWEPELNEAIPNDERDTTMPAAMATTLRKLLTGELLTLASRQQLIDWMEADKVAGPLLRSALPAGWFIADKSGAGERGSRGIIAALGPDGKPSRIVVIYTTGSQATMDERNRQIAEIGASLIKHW
Excerpt: In a further experiment, the two substances were separated on a cellulose thin layer developed with isopropanol:water (8:2) and extracted from the cellulose with phosphate buffer.

[4] = system: B. subtilis, Staphylococcus aureus, Escherichia coli, Salmonella typhimurium, Proteus mirabilis, Proteus morganii and Klebsiella aerogenes; test: detection by bioautography after cellulose TLC (qualitative); assay type: cell-based, various bacterial species; conditions: n-butanol:isopropanol:water 7:7:6
Escherichia coli 10418 = test: bioautography zone diameter (cellulose TLC); assay type: cell-based; conditions: butanol/isopropyl alcohol/water 7:7:6
solubility = conditions: sodium salt
Enterobacter aerogenes = test: bioautography zone diameter (cellulose TLC); assay type: cell-based; conditions: butanol/isopropyl alcohol/water 7:7:6
[5] = system: various species including strains of Staphylococcus aureus, Bacillus subtilis, Escherichia coli, Klebsiella aerogenes, Proteus mirabilis; test: antibacterial activity (qualitative); assay type: cell-based, various bacterial species; conditions: sodium salt, inter alia S. aureus, B. subtilis, E. coli, K. aerogenes, P. mirabilis
[6] = system: Escherichia coli, Klebsiella aerogenes, Proteus mirabilis, Proteus morganii and Staphylococcus aureus Russell; test: synergy with ampicillin (qualitative); assay type: cell-based
[7] = system: β-lactamase of Escherichia coli B11; test: I50 determination: inhibition of hydrolysis of ampicillin by E. coli B11 β-lactamase (starch-iodometric assay); assay type: biochemical; conditions: MM 4550A
Excerpt: This β-lactamase is classified as a type IIIa enzyme according to the classification of Richmond and Sykes [Adv. in Microbiol.Physiol. 9 31 (1973)]
The rate of β-lactamase hydrolysis of ampicillin to its penicilloic acid can be followed by a starch-iodometric assay in which one measures the rate of formation of penicilloic acid by following the decolorization of a starch-iodine complex. This method and the preparation of the β-lactamase are described in a paper by Cole M., Elson S., and Fullbrook P.D. (Biochemical Journal 1972, 127, 295-308). […] The procedure was as follows:
Buffer: 0.05M pH7 potassium phosphate buffer
Prepared from E. coli B11 as described by Cole
Enzyme: et al, Biochem. J. (1972) 127, 295. The dilution
of the enzyme preparation in buffer was such as
to give a fall of about 0.3 optical density
units per 100 secs. in the uninhibited reaction.
The reactions were carried out in 1 cm cuvettes at 37° C. in an SP 800 Pye Unicam spectrophotometer. This instrument can carry four sample cuvettes and their corresponding blanks. The first cuvette was used for the control reaction and contained no inhibitor. The 2nd, 3rd and 4th cuvettes were used for various dilutions of the inhibitor.
Inhibitor of buffer 0.1 ml 0.1 ml
Substrate (added after incubation […]

Klebsiella aerogenes = test: bioautography zone diameter (cellulose TLC); assay type: cell-based; conditions: butanol/isopropyl alcohol/water 7:7:6
Bacillus subtilis = test: bioautography zone diameter (cellulose TLC); assay type: cell-based; conditions: butanol/isopropyl alcohol/water 7:7:6
[8] = system: Staphylococcus aureus (Oxford); test: bioautography zone diameter (cellulose TLC); assay type: cell-based; conditions: butanol/isopropyl alcohol/water 7:7:6
[9] = system: Staphylococcus aureus (Russell); test: bioautography zone diameter (cellulose TLC); assay type: cell-based; conditions: butanol/isopropyl alcohol/water 7:7:6
[10] = system: β-lactamases produced by Klebsiella aerogenes; test: β-lactamase inhibition (qualitative); assay type: biochemical
[11] = specific activity relative to culture filtrate (arbitrary units)
Procedure: The material produced above was arbitrarily assigned an activity of 340 1/ml. Assays were determined as described in Description 3.

stability = assay type: physicochemical; conditions: monobasic salts and free acid

## CC1(C)S[C@@H]2[C@H](NC(=O)[C@H](N)c3ccccc3)C(=O)N2[C@H]1C(=O)O [Ampicillin, ampicillin]
Staph. aureus (Russell)
  minimum inhibitory concentration: 250
[1]
  minimum inhibitory concentration: > 500
Proteus mirabilis 889
  minimum inhibitory concentration: > 500
E. coli B11
  minimum inhibitory concentration: > 500
Proteus rettgeri R110
  minimum inhibitory concentration: 250
E. coli JT39
  minimum inhibitory concentration: > 500
Proteus mirabilis 247
  minimum inhibitory concentration: > 500

## CC(=O)N/C=C/[S+]([O-])C1=C(C(=O)O)N2C(=O)C(C(C)OS(=O)(=O)O)C2C1 (stereo not shown) [MM 4550A]
[2]
  enzyme inhibitory activity against β-lactamase: possesses enzyme inhibitory activity
Proteus morganii
  Zone Diameter on Bioautography: 16.0 mm
[3]
  enzyme inhibitory activity against β-lactamase: possesses enzyme inhibitory activity
[4]
  detection by bioautography: may be detected by bioautography on a variety of organisms
Escherichia coli 10418
  Zone Diameter on Bioautography: 20.0 mm
solubility
  solubility in chloroform, diethylether and hydrocarbons: substantially insoluble
  solubility in methanol: soluble
  solubility in water: highly soluble
Enterobacter aerogenes
  Zone Diameter on Bioautography: 6.5 mm
[5]; Acinetobacter anitratus, Serratia, Shigella sonnei
  antibacterial activity against various species: possesses antibacterial activity
[6]
  synergy when mixed with ampicillin: synergyses its activity
[7]
  I50: less than 0.0001 μg/ml
Klebsiella aerogenes
  Zone Diameter on Bioautography: 20.0 mm
Bacillus subtilis
  Zone Diameter on Bioautography: 24.0 mm
[8]
  Zone Diameter on Bioautography: 13.0 mm
[9]
  Zone Diameter on Bioautography: 12.0 mm
[10]
  enzyme inhibitory activity against β-lactamase: possesses enzyme inhibitory activity

## CC(=O)N/C=C/SC1=C(C(=O)O)N2C(=O)C(C(C)OS(=O)(=O)O)C2C1 (stereo not shown) [MM 13902 di-sodium salt]
[11]; after cellulose chromatography, yellowish powder
  activity: 73,000 units/mg

## CC(=O)N/C=C/SC1=C(C(=O)O)N2C(=O)C(C(C)OS(=O)(=O)O)C2C1 (stereo not shown) [MM 13902]
stability
  stability to isolation from mixtures such as MM 4550 (Complex): not sufficiently stable to isolate from mixtures
[4]
  detection by bioautography: may be detected by bioautography on a variety of organisms
solubility
  solubility in chloroform, diethylether and hydrocarbons: substantially insoluble
  solubility in methanol: soluble
  solubility in water: highly soluble
Enterobacter aerogenes
  Zone Diameter on Bioautography: No Zone
[11]; partially purified, after Amberlite XAD 4
  activity: 37,000 units/mg
[5]; Salmonella typhi, Ps. aeruginosa
  antibacterial activity against various species: possessed antibacterial activity
[6]
  synergy when mixed with ampicillin: synergizes its activity
